The text below walks through data of patent publication US20240376099A1, “COMPOUNDS AND COMPOSITIONS AS INHIBITORS OF ENDOSOMAL TOLL-LIKE RECEPTORS” (Novartis AG, priority 2016, published 2024).

Structures are written as SMILES. pIC50: −log10 of the molar value.

The assay concerns the target T1, TLR8 (Homo sapiens, UniProt Q9NR97).
T1 sequence (Q9NR97 27-1041): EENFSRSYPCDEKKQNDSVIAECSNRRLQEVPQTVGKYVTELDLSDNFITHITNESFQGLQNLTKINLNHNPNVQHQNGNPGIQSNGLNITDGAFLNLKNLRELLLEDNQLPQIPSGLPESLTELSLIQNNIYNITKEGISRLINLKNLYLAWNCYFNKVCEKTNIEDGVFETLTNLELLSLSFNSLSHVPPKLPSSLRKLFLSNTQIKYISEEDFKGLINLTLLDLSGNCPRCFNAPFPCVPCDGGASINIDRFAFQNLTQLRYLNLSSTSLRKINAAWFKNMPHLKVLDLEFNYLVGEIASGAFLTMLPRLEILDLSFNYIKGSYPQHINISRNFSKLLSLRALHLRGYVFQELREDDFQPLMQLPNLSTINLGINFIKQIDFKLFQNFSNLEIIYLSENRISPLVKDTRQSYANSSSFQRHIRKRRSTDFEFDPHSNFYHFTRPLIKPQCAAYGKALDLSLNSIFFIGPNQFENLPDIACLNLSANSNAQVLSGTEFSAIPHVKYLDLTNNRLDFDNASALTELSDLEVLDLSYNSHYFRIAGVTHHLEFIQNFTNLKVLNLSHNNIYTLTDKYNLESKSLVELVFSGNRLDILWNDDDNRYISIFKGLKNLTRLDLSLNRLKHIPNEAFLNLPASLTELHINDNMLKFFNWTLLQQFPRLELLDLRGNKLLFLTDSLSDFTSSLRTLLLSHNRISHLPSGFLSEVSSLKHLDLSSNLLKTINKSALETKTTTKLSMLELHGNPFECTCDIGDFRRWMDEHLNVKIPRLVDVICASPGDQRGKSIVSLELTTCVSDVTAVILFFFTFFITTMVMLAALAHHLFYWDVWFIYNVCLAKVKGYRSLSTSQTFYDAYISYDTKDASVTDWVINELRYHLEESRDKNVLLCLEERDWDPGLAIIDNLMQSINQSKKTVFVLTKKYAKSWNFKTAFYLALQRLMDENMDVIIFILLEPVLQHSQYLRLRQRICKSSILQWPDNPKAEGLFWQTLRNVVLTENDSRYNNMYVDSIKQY
The assay can be described thus: huPBMC TLR8 Antagonist IL-6 TR-FRET Assay. The class given is cell-based. Also noted: Fresh blood was collected from normal human donors; endogenous in cells; host or cells: human PBMCs from fresh donor blood. The settings on record: human PBMCs stimulated with ssRNA40 1 μg/ml (DOTAP), 14-16 hrs; IL-6 TR-FRET read-out. The gist of the method:
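Human PBMCs from fresh donor blood (150,000 cells/well) stimulated 14–16 h at 37 °C with DOTAP-complexed ssRNA40 (final 1 μg/ml for TLR8, 10 μg/mL for TLR7) or ODN2216 (final 0.3 μM, TLR9), 0.25% DMSO, ten-point 1/3 compound dilutions. Supernatant IL-6 read by HTRF (TLR8); IFNα by IFNα2b AlphaLISA (TLR7/TLR9).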
A word on the pIC50: it is the negative decadic logarithm of the IC50, by convention in mol/L. As for `CN[C@H](C)C(=O)NC12CCC(Cn3nc(C)c4c3CCN(c3cc(C)nc5c3cnn5C)C4)(CC1)CC2` [compound 117, (R)-N-(4-((5-(1,6-dimethyl-1H-pyrazolo[3,4-b]pyridin-4-yl)-3-methyl-4,5,6,7-tetrahydro-1H-pyrazolo[4,3-c]pyridin-1-yl)methyl)bicyclo[2.2.2]octan-1-yl)-2-(methylamino)propanamide], the pIC50 was 6.63.

With `CN[C@@H](C)C(=O)NC12CCC(Cn3nc(C)c4c3CCN(c3cc(C)nc5c3cnn5C)C4)(CC1)CC2` [compound 118], the negative logarithm of the IC50 (pIC50) is 6.71.

Take `CNCC(=O)NC12CCC(Cn3nc(C)c4c3CCN(c3cc(C)nc5c3cnn5C)C4)(CC1)CC2` [compound 121, N-(4-((5-(1,6-dimethyl-1H-pyrazolo[3,4-b]pyridin-4-yl)-3-methyl-4,5,6,7-tetrahydro-1H-pyrazolo[4,3-c]pyridin-1-yl)methyl)bicyclo[2.2.2]octan-1-yl)-2-(methylamino)acetamide]: the pIC50 is 7.41.

As to `Cc1cc(N2CCc3c(c(C)nn3CC34CCC(NCC(C)(C)O)(CC3)CC4)C2)c2cnn(C)c2n1` [compound 123, 1-((4-((5-(1,6-dimethyl-1H-pyrazolo[3,4-b]pyridin-4-yl)-3-methyl-4,5,6,7-tetrahydro-1H-pyrazolo[4,3-c]pyridin-1-yl)methyl)bicyclo[2.2.2]octan-1-yl)amino)-2-methylpropan-2-ol], the pIC50 is 6.92.

As for `CCNCC(=O)NC12CCC(Cn3nc(C)c4c3CCN(c3cc(C)nc5cn[nH]c35)C4)(CC1)CC2` [compound 124, 2-(ethylamino)-N-(4-((3-methyl-5-(5-methyl-1H-pyrazolo[4,3-b]pyridin-7-yl)-4,5,6,7-tetrahydro-1H-pyrazolo[4,3-c]pyridin-1-yl)methyl)bicyclo[2.2.2]octan-1-yl)acetamide], the negative-log IC50 (pIC50) is < 5.00.

With `Cc1cc(N2CCc3c(c(C)nn3CC34CCC(NC(=O)C5CNCCO5)(CC3)CC4)C2)c2cnn(C)c2n1` (centres unmarked) [compound 125, N-(4-((5-(1,6-dimethyl-1H-pyrazolo[3,4-b]pyridin-4-yl)-3-methyl-4,5,6,7-tetrahydro-1H-pyrazolo[4,3-c]pyridin-1-yl)methyl)bicyclo[2.2.2]octan-1-yl)morpholine-2-carboxamide], the pIC50 was 7.37.

For `CCNCCC(=O)NC12CCC(Cn3nc(C)c4c3CCN(c3cc(C)nc5c3cnn5C)C4)(CC1)CC2` [compound 126, N-(4-((5-(1,6-dimethyl-1H-pyrazolo[3,4-b]pyridin-4-yl)-3-methyl-4,5,6,7-tetrahydro-1H-pyrazolo[4,3-c]pyridin-1-yl)methyl)bicyclo[2.2.2]octan-1-yl)-3-(ethylamino)propanamide], the pIC50 is 6.82.

In the case of `CCNC12CCC(Cn3nc(C)c4c3CCN(c3ccnc(-c5ccccc5)c3)C4)(CC1)CC2` [compound 127, N-ethyl-4-((3-methyl-5-(2-phenylpyridin-4-yl)-4,5,6,7-tetrahydro-1H-pyrazolo[4,3-c]pyridin-1-yl)methyl)bicyclo[2.2.2]octan-1-amine], the pIC50 was 5.85.

For `Cc1cc(N2CCc3c(c(C)nn3CC34CCC(N5CCOC[C@@H]5C)(CC3)CC4)C2)c2cnn(C)c2n1` [compound 128, (S)-4-(4-((5-(1,6-dimethyl-1H-pyrazolo[3,4-b]pyridin-4-yl)-3-methyl-4,5,6,7-tetrahydro-1H-pyrazolo[4,3-c]pyridin-1-yl)methyl)bicyclo[2.2.2]octan-1-yl)-3-methylmorpholine], the negative logarithm of the IC50 (pIC50) was 7.89.

For `Cc1cc(N2CCc3c(c(C)nn3CC34CCC(N5CCOC[C@H]5C)(CC3)CC4)C2)c2cnn(C)c2n1` [compound 129, (R)-4-(4-((5-(1,6-dimethyl-1H-pyrazolo[3,4-b]pyridin-4-yl)-3-methyl-4,5,6,7-tetrahydro-1H-pyrazolo[4,3-c]pyridin-1-yl)methyl)bicyclo[2.2.2]octan-1-yl)-3-methylmorpholine], the pIC50 is 7.92.

For the compound `COCCNC12CCC(Cn3nc(C)c4c3CCN(c3ccnc(-c5ccccc5)c3)C4)(CC1)CC2` [compound 130, N-(2-methoxyethyl)-4-((3-methyl-5-(2-phenylpyridin-4-yl)-4,5,6,7-tetrahydro-1H-pyrazolo[4,3-c]pyridin-1-yl)methyl)bicyclo[2.2.2]octan-1-amine], the negative logarithm of the IC50 (pIC50) was 5.55.

Turning to `Cc1cc(N2CCc3c(c(C)nn3CC34CCC(NC(=O)C5CNC5)(CC3)CC4)C2)c2cnn(C)c2n1` [compound 131, N-(4-((5-(1,6-dimethyl-1H-pyrazolo[3,4-b]pyridin-4-yl)-3-methyl-4,5,6,7-tetrahydro-1H-pyrazolo[4,3-c]pyridin-1-yl)methyl)bicyclo[2.2.2]octan-1-yl)azetidine-3-carboxamide], the pIC50 is 6.44.

As for `CCN(C)CC(=O)NC12CCC(Cn3nc(C)c4c3CCN(c3cc(C)nc5c3cnn5C)C4)(CC1)CC2` [compound 132, N-(4-((5-(1,6-dimethyl-1H-pyrazolo[3,4-b]pyridin-4-yl)-3-methyl-4,5,6,7-tetrahydro-1H-pyrazolo[4,3-c]pyridin-1-yl)methyl)bicyclo[2.2.2]octan-1-yl)-2-(ethyl(methyl)amino)acetamide], the negative-log IC50 (pIC50) was 8.10.

Turning to `[2H]C([2H])([2H])N(CC(=O)NC12CCC(Cn3nc(C)c4c3CCN(c3cc(C)nc5c3cnn5C)C4)(CC1)CC2)C([2H])([2H])[2H]` [compound 134, 2-(bis(trideuteromethyl)amino)-N-(4-((5-(1,6-dimethyl-1H-pyrazolo[3,4-b]pyridin-4-yl)-3-methyl-4,5,6,7-tetrahydro-1H-pyrazolo[4,3-c]pyridin-1-yl)methyl)bicyclo[2.2.2]octan-1-yl)acetamide], the pIC50 is 7.03.

In the case of `Cc1cc(N2CCc3c(c(C)nn3CC34CCC(NCC5(CO)COC5)(CC3)CC4)C2)c2cnn(C)c2n1` [compound 137, (3-(((4-((5-(1,6-dimethyl-1H-pyrazolo[3,4-b]pyridin-4-yl)-3-methyl-4,5,6,7-tetrahydro-1H-pyrazolo[4,3-c]pyridin-1-yl)methyl)bicyclo[2.2.2]octan-1-yl)amino)methyl)oxetan-3-yl)methanol], the negative logarithm of the IC50 (pIC50) was 7.17.

As to `CCn1ncc2c(N3CCc4c(c(C)nn4CC45CCC(NC(=O)[C@@H]6COCCN6)(CC4)CC5)C3)cc(C)nc21` [compound 141, (S)-N-(4-((5-(1-ethyl-6-methyl-1H-pyrazolo[3,4-b]pyridin-4-yl)-3-methyl-4,5,6,7-tetrahydro-1H-pyrazolo[4,3-c]pyridin-1-yl)methyl)bicyclo[2.2.2]octan-1-yl)morpholine-3-carboxamide], the pIC50 is 5.64.

With `CNCCC(=O)NC12CCC(Cn3nc(C)c4c3CCN(c3cc(C)nc5c3cnn5C)C4)(CC1)CC2` [compound 142, N-(4-((5-(1,6-dimethyl-1H-pyrazolo[3,4-b]pyridin-4-yl)-3-methyl-4,5,6,7-tetrahydro-1H-pyrazolo[4,3-c]pyridin-1-yl)methyl)bicyclo[2.2.2]octan-1-yl)-3-(methylamino)propanamide], the negative-log IC50 (pIC50) was 6.03.

In the case of `Cc1cc(N2CCc3c(c(C)nn3CC34CCC(NC5CCC5)(CC3)CO4)C2)c2cnn(C)c2n1` [compound 143, N-cyclobutyl-1-((5-(1,6-dimethyl-1H-pyrazolo[3,4-b]pyridin-4-yl)-3-methyl-4,5,6,7-tetrahydro-1H-pyrazolo[4,3-c]pyridin-1-yl)methyl)-2-oxabicyclo[2.2.2]octan-4-amine], the pIC50 is 6.16.

For the compound `Cc1nn(CC23CCC(NC4CCC4)(CC2)CC3)c2c1CN(c1ccnc(-c3ccccc3)c1)CC2` [compound 144, N-cyclobutyl-4-((3-methyl-5-(2-phenylpyridin-4-yl)-4,5,6,7-tetrahydro-1H-pyrazolo[4,3-c]pyridin-1-yl)methyl)bicyclo[2.2.2]octan-1-amine], the pIC50 is 6.98.

For the compound `Cc1cc(N2CCc3c(c(C)nn3CC34CCC(NC(=O)OC(C)(C)C)(CC3)C4)C2)c2cnn(C)c2n1` [compound 148, tert-butyl (4-((5-(1,6-dimethyl-1H-pyrazolo[3,4-b]pyridin-4-yl)-3-methyl-4,5,6,7-tetrahydro-1H-pyrazolo[4,3-c]pyridin-1-yl)methyl)bicyclo[2.2.1]heptan-1-yl)carbamate], the pIC50 was < 5.00.
